The source of these data is patent publication US20070231871A1, “Process for an Enzymatic Oxygenation by Direct Electrochemical Regeneration of the Fad-Dependent Monooxygenase” (priority 2004, published 2007).

The target in this test is T1, Styrene monooxygenase (StyAB), FAD-dependent monooxygenase component (StyA) (Pseudomonas sp, UniProt O50214).
T1 construct: made in house; host or cells: Escherichia coli JM101
T1 sequence (O50214 1-415): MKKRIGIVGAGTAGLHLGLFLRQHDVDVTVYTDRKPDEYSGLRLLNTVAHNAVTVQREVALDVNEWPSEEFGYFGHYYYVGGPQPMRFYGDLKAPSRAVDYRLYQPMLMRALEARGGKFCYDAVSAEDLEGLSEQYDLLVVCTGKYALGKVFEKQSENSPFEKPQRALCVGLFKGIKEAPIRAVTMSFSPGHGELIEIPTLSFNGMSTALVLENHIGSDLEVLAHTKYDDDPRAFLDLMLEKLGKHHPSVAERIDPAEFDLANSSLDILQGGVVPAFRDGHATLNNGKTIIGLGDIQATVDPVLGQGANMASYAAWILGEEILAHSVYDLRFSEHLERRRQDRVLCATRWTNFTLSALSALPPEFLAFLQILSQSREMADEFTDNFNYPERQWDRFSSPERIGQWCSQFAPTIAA
The experiment in a line: Electroenzymatic epoxidation of styrene derivatives by StyA with direct electrochemical FAD regeneration. Type of test: biochemical. Conditions: for ee-value: optical purity of the (S)-epoxide product of the electroenzymatic epoxidation. As for the experimental part:
Initial experiments on the electroenzymatic epoxidation were performed with trans-β-methyl styrene as substrate. Electrolyses were performed potentiostatically applying a cathode potential of −550 mV vs. Ag/AgClsat. No product formation was detectable when either StyA or FAD was omitted from the reaction medium. […] Similarly, a broad variety of diversely substituted vinylaromatic compounds could be transformed to the more than 98% optically pure corresponding (S) epoxides (Table 1).
StyA was enriched from recombinant Escherichia coli JM101 as described previously^[35]. The purity of the lyophilized biocatalyst was approximately 70% (as determined by SDS gel-electrophoresis).
Electrolyses were performed in a thermostatted stirred tank reactor. Cylindrical carbon felt served as cathode (working electrode) and the potential was adjusted versus a saturated Ag/AgClsat. reference electrode. The dimensions of the working electrode are given a macroscopic area (corresponding to an average of 27.1±2.1 mg cm^−2). Conditions of either a divided or an undivided cell were chosen. For the divided cell, the Pt-wire counter electrode was placed in a dialysis membrane; otherwise a Pt-foil (Ø1 cm) was used. After supplementing the reactor with the reaction components indicated a cathode potential of −550 mV vs. Ag/AgClsat was applied. In case of divided cell, O2 was supplied by heterogeneous intake of air (intake rates were estimated with a Hewlett Packard soap film flowmeter; under the conditions of an undivided cell, O2 was generated at the counter electrode.
Reaction rates (and enzyme performances calculated thereof were determined based on the product formation as determined by HPLC using protocols previously reported.^[34, 35]

Setting [1] is: potassium phosphate buffer 50 mM pH 7.5, T = 30° C., c(StyA) = 2.13 μM, c(FAD) = 300 μM, catalase 480 U mL^−1, substrate 2 mM, cathode 14 cm^2, −550 mV vs. Ag/AgClsat.

Structures are written as SMILES. Marks after values point to notes of the source that are not given here.

For the molecule `C=Cc1ccccc1`, under setting [1], the Rate came out at 28.1 U g^−1. The molecule `c1ccc([C@H]2CO2)cc1` registered an ee-value of 98.5%. Under setting [1], `C=C(C)c1ccccc1` registered a Rate of 14.6 U g^−1. As to `C[C@]1(c2ccccc2)CO1`, the ee-value was determined as 99.5%.

`C1=Cc2ccccc2CC1` came in with a Rate under setting [1] of 58.9 U g^−1. `c1ccc2c(c1)CC[C@H]1O[C@@H]21` registered an ee-value of 99.2%. As to `C=Cc1cccc(Cl)c1`, where the note is “as general conditions but T = 25° C., activity determined after 15 min”, the Rate is 27.7 [b] U g^−1. Regarding `Clc1cccc([C@H]2CO2)c1`, the ee-value came to 98.1%.

Consider `C[C@@H]1O[C@H]1c1ccccc1` [(1S,2S)-1-phenylpropylene oxide], for which the ee-value is on record as more than 99.9%. Further, the “Optical purity of product” value (substrate trans-β-methyl styrene, −550 mV vs. Ag/AgClsat, all reaction components present) is given as “practically enantiopure”.

For the molecule `C/C=C/c1ccccc1` [trans-β-methyl styrene], under setting [1], the Rate is listed as 35.5 U g^−1.
